Measured values taken from PubChem BioAssay (NCI).
“And” between values parts separate entries of the source, which are not always exact repeats. Equal entries are not always repeated.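 Compound exposure: 48 hours, 5 concentrations, 96-well plates. GI50 = concentration required for 50% inhibition of growth. TGI marks complete inhibition of growth.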 Where a SMILES comes first, the peptide text is derived from it. [ ]: non-standard residue; d: D form. The star is where a group is joined. ξ: configuration not given here. dIva = CC[C@@](C)(N)C(=O)O; Aib = CC(C)(N)C(=O)O; ξP = O=C(O)C1CCCN1; βAla = NCCC(=O)O; X5 = OCN*

Legend:
Experiment in all cases: DTP human tumour cell line panel, 48 h
[1] = system: NCI-H226 lung
[2] = system: MDA-MB-231 breast
[3] = system: SK-OV-3 ovarian
[4] = system: BT-549 breast
[5] = system: MOLT-4 leukemia
[6] = system: SR leukemia
[7] = system: T-47D breast
[8] = system: EKVX NSCLC

Structure (SMILES)	GI50 [1]	TGI [1]	GI50 [2]	TGI [2]	GI50 [3]	TGI [3]	GI50 [4]	TGI [4]	GI50 [5]	TGI [5]	GI50 [6]	TGI [6]	GI50 [7]	TGI [7]	TGI [8]	GI50 [8]
NC(N)=N/N=C/c1ccc(Br)cc1	5.15 µM	17.4 µM	4.49 µM	14 µM	6.75 µM	30.5 µM	5.64 µM	16.7 µM	3.98 µM	> 100 µM	1.84 µM	47 µM	5.57 µM	23.7 µM		
N#CC(CC(=O)O)=C(c1ccccc1)c1ccccc1		> 100 µM		> 100 µM		> 100 µM		> 100 µM				> 100 µM			> 100 µM	
O=S1(=O)C=C(c2ccccc2)C(c2ccccc2)=C1	1.68 µM	3.34 µM	1.62 µM	3.09 µM	7.81 µM	20.2 µM					2.8 µM	13.9 µM			6.21 µM	2.08 µM
Nc1cc(N)c2nc(-c3ccccc3)c(Oc3ccc(Cl)c(Cl)c3)nc2c1	15.1 µM	49.5 µM	10.3 µM	26.2 µM	23.9 µM	65.9 µM			6.28 µM	> 100 µM	3.36 µM	24.2 µM	24.5 µM	79.1 µM	8.35 µM	2.16 µM
COc1cc(OC)c2c(c1Cl)O[C@]1(C2=O)C(OCc2ccccc2)=CC(=O)C[C@H]1C	4.18 µM	30.2 µM	1.22 µM	5.02 µM	1.29 µM	7.75 µM	2.28 µM	21.1 µM	0.826 µM	8.79 µM	0.331 µM	10.8 µM	0.792 µM	67.8 µM		
CCC(=O)OCN1C(=O)C=CC1=O	15.2 µM	30.1 µM and > 63.3 µM		33.2 µM and 33.1 µM	> 100 µM	> 100 µM		33.3 µM and 34.4 µM	3.32 µM		3.27 µM	> 100 µM			32.4 µM and 42.5 µM	16.8 µM
COc1ccc2c(c1)C(=O)c1c-2n(CCCNCCO)c(=O)c2cc([N+](=O)[O-])ccc12	0.0477 µM	0.97 µM	0.594 µM	2.34 µM	< 0.01 µM	1.69 µM	0.0226 µM	1.21 µM	< 0.01 µM	< 0.01 µM	< 0.01 µM	< 0.01 µM			4.77 µM	0.0733 µM
O=C(N/N=C/c1cccc(O)c1)c1ccc(C(F)(F)F)nc1Nc1cccc(C(F)(F)F)c1	1.28 µM	3.51 µM	1.08 µM	3.02 µM	1.77 µM	6.02 µM	0.76 µM	3.41 µM	0.43 µM	2.09 µM			1.54 µM	7.08 µM	3.37 µM	1.01 µM
O=C(CN1CCN(c2ccccn2)CC1)Nc1ccc(Cl)cc1C(=O)c1ccccc1Cl	> 100 µM	> 100 µM			> 100 µM	> 100 µM	81.4 µM	> 100 µM	5.49 µM	> 100 µM	6.63 µM	> 100 µM	3.89 µM	> 100 µM	> 100 µM	45.4 µM
CSc1nc(-c2cccc(NC(=O)CCl)c2)c(C#N)c(=O)n1C	3.65 µM	44.3 µM	1.6 µM	3.38 µM	12.5 µM	48.1 µM	1.51 µM	3.02 µM					1.71 µM	4.19 µM	3.65 µM	1.88 µM
COc1ccc(CNC(=O)c2c(C)n([O-])c3cc(F)c(F)cc3[n+]2=O)cc1	16.5 µM	41 µM	12.2 µM	25.5 µM	14.8 µM	27.9 µM	13.8 µM	26.8 µM	4.61 µM	21.2 µM			3.33 µM	16.1 µM		
CNCC1CCn2c(c(C3=C(c4cn(C)c5ccccc45)C(=O)NC3=O)c3ccccc32)C1 (centres undefined)	3.23 µM	14.2 µM	2.54 µM	7.27 µM	5.18 µM	16.4 µM	4.36 µM	10.9 µM	1.87 µM	8.74 µM	1.79 µM	8.78 µM	3.27 µM	7.27 µM		
CC[C@@](C)(NC(=O)[C@H](C)NC(=O)CCNC(=O)C(C)(C)NC(=O)[C@H](C)NC(=O)[C@@H]1CCCN1C(=O)[C@@](C)(CC)NC(=O)[C@H](Cc1ccccc1)NC(=O)C1CCCN1C(=O)C(C)(C)NC(=O)C1CCCN1C(=O)C(C)(C)NC(C)=O)C(=O)NCCC(=O)N[C@@H](CC(C)C)C(=O)NC(C)(C)C(=O)NCCC(=O)N[C@@H](CC(C)C)C(=O)NC(C)(C)C(=O)NC(C)(C)C(=O)N[C@@H](CC(C)C)C(=O)NCCC(=O)NCO (some centres undefined) (Ac-[Aib][ξP][Aib][ξP]F[dIva]PA[Aib][βAla]A[dIva][βAla]L[Aib][βAla]L[Aib][Aib]L[βAla]-X5)	0.101 µM	0.342 µM			0.0725 µM	0.266 µM	0.0699 µM	0.266 µM	0.306 µM	0.645 µM	0.272 µM	0.646 µM	0.0739 µM	0.302 µM	0.275 µM	0.0661 µM
Nc1nc(N)c(-c2ccc(Cl)cc2)c(/C=C/c2ccc([N+](=O)[O-])cc2)n1	20.3 µM	> 100 µM	8.01 µM	> 100 µM	19.2 µM	56.4 µM	13.1 µM	90.3 µM	8.27 µM	> 100 µM	6.25 µM	> 100 µM	6.19 µM	> 100 µM		
C=C1C(OCCO)OC2O[C@]3(C)CCC4[C@H](C)CCC1C24OO3 (some centres undefined)					> 100 µM	> 100 µM	10.8 µM	71.2 µM	1.96 µM	27.9 µM	2.36 µM	26.2 µM	1.56 µM	> 100 µM	> 100 µM	23.2 µM
COc1ccc(OC)c(/C=C/C(=O)c2ccc3cc(OC)ccc3c2)c1	> 50 µM	> 50 µM	> 50 µM	> 50 µM	1.04 µM	2.37 µM	7.01 µM	> 37.4 µM	7.74 µM	26.1 µM			0.811 µM	3.33 µM	> 50 µM	> 12.3 µM
COc1ccc2c(c1)O/C(=C\c1ccc([N+](=O)[O-])s1)C2=O	> 31.3 µM	> 100 µM			> 22.7 µM	> 62.7 µM			2.26 µM	> 100 µM	0.12 µM	0.759 µM				
COn1cc(C(=O)N=C(SC)SC)c2ccccc21	14.1 µM	51.2 µM	17.5 µM	51.3 µM	50.6 µM	> 100 µM	19.2 µM	63.3 µM	9.42 µM	30.1 µM			75.1 µM	> 100 µM	77.5 µM	25 µM
CCCNC(=O)Nc1ccc2c(c1)Cc1cc(N(CCCl)CCCl)ccc1-2				> 100 µM				85 µM				> 100 µM			77.4 µM	
C[C@H](CCCOS(C)(=O)=O)[C@H]1CC[C@H]2[C@@H]3CC[C@@H]4C[C@H](OS(C)(=O)=O)CC[C@]4(C)[C@H]3CC[C@]12C	418 µM		503 µM		> 2500 µM								1040 µM	> 2500 µM	> 2500 µM	865 µM
O=C1CC2OCC=C3CN4CCC56c7ccccc7N1C5C2C3CC46 (centres undefined) (tested in a mixture with another compound)	> 50 µg/mL	> 50 µg/mL	> 50 µg/mL	> 50 µg/mL	> 50 µg/mL	> 50 µg/mL	> 50 µg/mL	> 50 µg/mL	11.5 µg/mL	24.9 µg/mL			> 50 µg/mL	> 50 µg/mL	> 50 µg/mL	> 50 µg/mL
O=C(O)CSc1nnc2c3ccccc3c3ccccc3c2n1		> 100 µM		> 100 µM		> 100 µM		> 100 µM				> 100 µM			> 100 µM	
COc1cc2c3c(n(CCCN4CCN(CCO)CC4)c(=O)c2cc1OC)-c1cc2c(cc1C3=O)OCO2	7.49 µM	28.4 µM	4.97 µM	18.3 µM	21.1 µM	> 78.9 µM	2.35 µM	12.3 µM	0.0899 µM	6.24 µM		1.34 µM	> 100 µM	> 100 µM		
CC1(C)N=C(N)N=C(N)N1c1ccc(CCC(=O)Nc2cccc(S(=O)(=O)F)c2)cc1	> 100 µM	> 100 µM	86.8 µM	> 100 µM	> 100 µM	> 100 µM	7.21 µM	> 100 µM	19.8 µM	> 100 µM			68.7 µM	> 100 µM	> 100 µM	> 100 µM
NC(N)=NC(N)=NCc1ccco1	> 1250 µM	> 1250 µM	> 1250 µM	> 1250 µM	> 1250 µM	> 1250 µM	336 µM and 974 µM	> 1250 µM	> 1250 µM	> 1250 µM			> 1250 µM	> 1250 µM	> 1250 µM	117 µM and 31.7 µM
COc1ccc(-c2cc(=O)c3cccnc3[nH]2)cc1		> 100 µM		> 100 µM		> 100 µM		> 100 µM		> 100 µM				> 100 µM	> 100 µM	
